Experimental data published in patent publication US10787640B2, “Producing mesodermal cell types and methods of using the same” (The Board of Trustees of the Leland Stanford Junior …, priority 2015, dated 2020).

Key:
Type in all cases: cell-based, human
[1] = tested on: day 3 early somite progenitors; assay: Patterning of early somite progenitors into sclerotome or dermomyotome; settings: 21K with C59, 2-3 days
Protocol: Day 2 paraxial mesoderm was briefly washed (DMEM/F12) and further differentiated into day 3 early somite/somitomere precursors for 24 hours (1 μM A-83-01+250 nM LDN-193189+1 μM C59+500 nM PD0325901). Subsequently, day 3 early somites were dorsoventrally patterned into either ventral somites/sclerotome (5 nM 21K+1 μM C59) or dorsal somites/dermomyotome (3 μM CHIR99021+150 nM Vismodegib). Sclerotome induction was conducted for 48-72 hours (leading to day 5-6 ventral somite progenitors). […] Media was changed 24 hours for all steps. The Hedgehog agonist 21K, which has been previously described in, e.g., Brunton et al., 2009 the disclosure of which is incorporated herein by reference in its entirety, was commercially synthesized.
Day 3 early somites were briefly washed (DMEM/F12), treated with BMP4+CHIR99021+Vismodegib for 24 hours, washed again (DMEM/F12) and subsequently treated with CHIR99021 (3 μM)+21K (5 nM) for 24 hours. This day 5 dermomyotome was further empirically differentiated towards skeletal muscle-like progeny (using medium containing 2% horse serum, which has been previously described in, e.g., Xu et al. 2013, the disclosure of which is incorporated herein by reference in its entirety) for 12 days, yielding day 17 skeletal muscle-containing populations.
FIG. 11: A) To determine the length of time required for sclerotome differentiation, a qPCR timecourse was performed, encompassing undifferentiated hESCs (D0), day 2 hESC-derived paraxial mesoderm (D2 PXM), day 3 hESC-derived early somite progenitors, and hESC-derived day 3 early somite progenitors that were exposed to sclerotome inductive conditions (5 nM 21K+1 μM C59) for 24 or 48 hours. B) Description of EF1α-BCL2-T2A-GFP lentiviral construct (otherwise known as “C306”; top) and FACS plot of a stably-transduced polyclonal H9 hESC line with near-uniform expression of the BCL2-T2A-GFP transgene (green contour) by comparison to uncolored wild-type hESCs (bottom) (see above methods for details of derivation of the H9 BCL2-T2A-GFP hESC line). C) Higher-magnification picture of BCL2-T2A-GFP hESC-derived sclerotome ectopic bone grafts (originally described above in FIG. 4, panel E), showing that despite the near-ubiquitous expression of GFP throughout the ectopic bone graft (indicating its human provenance), the blood vessels are clearly GFP-negative and therefore presumably derived from the mouse host; scale bar=1 mm. […] L) Description of EF1a-BCL2-T2A-GFP lentiviral construct (otherwise known as “C306”; top) and FACS plot of a stably-transduced polyclonal H9 hESC line with near-uniform expression of the BCL2-T2A-GFP transgene (green contour) by comparison to uncolored wild-type hESCs (bottom) (see the methods described herein for details of derivation of the H9 BCL2-T2A-GFP hESC line). M) Description of UBC-Luciferase-T2A-tdTomato lentiviral construct (top); bioluminescent assay of cultured H9 UBC-Luciferase-T2A-tdTomato hESCs validates that these cells are luciferase-expressing in vitro (bottom).

[2] = tested on: hESC-derived lateral mesoderm; assay: Lateral mesoderm patterning, qPCR
Protocol: Subsequently, day 1 anterior primitive streak was briefly washed (DMEM/F12) and differentiated towards day 2 paraxial mesoderm for 24 hours (1 μM A-83-01+3 μM CHIR99021+250 nM LDN-193189+20 ng/mL FGF2). Separately, day 1 mid primitive streak was differentiated towards day 2 lateral mesoderm for 24 hours (1 μM A-83-01+30 ng/mL BMP4+1 μM C59; with 2 μM SB-505124 sometimes used instead of A-83-01).
(§1) C) To reveal the possible identity of non-cardiac mesoderm lineages that were contaminating cardiac mesoderm-containing cultures, NKX2.5-GFP hESCs were differentiated towards mid primitive streak (day 1) and were differentiated towards a heterogeneous population containing cardiac mesoderm (day 3) by treatment with SB-505124+BMP4+C59 (without FGF2) on days 2-3 of differentiation. FACS was performed on day 3 to purify either NKX2.5-GFP^+ or NKX2.5-GFP^− cells (top subpanels) which were sorted for qPCR (bottom subpanels). Gene expression was normalized to expression of a gene in the NKX2.5-GFP^+ fraction (dotted line). D) Timecourse of gene expression in hESCs differentiating towards mid primitive streak and lateral mesoderm, with treatment by SB-505124+BMP4+C59 on days 2-3 of differentiation. […] G) To assess whether a stabilized vitamin C analog (ascorbic acid-2-phosphate) (AA2P) enhanced cardiac mesoderm differentiation into cardiomyocytes, day 4 hESC-derived cardiac mesoderm was exposed to BMP4 (30 ng/mL)+XAV939 (1 μM) for 48 hours in the presence or absence of 200 μg/mL AA2P and qPCR was conducted of day 6 populations; qPCR data were normalized such that expression values in the highest-expressing sample was normalized=1.0. […] J) In the mouse embryo, endocardium (progenitors to heart-affiliated endothelium) are marked by transient coexpression of pan-heart marker Nkx2.5 together with endothelial markers (Ferdous et al., 2009; Stanley et al., 2002).

[3] = tested on: day 3 hemogenic precursors; assay: Hemogenic precursors into day 5 hematopoietic intermediates
Protocol: (§2) SOX17^mCherry/+ H9 hESCs (referred to as SOX17-mCherry hESCs throughout this study) were routinely propagated in mTeSR1 (StemCell Technologies)+1% penicillin/streptomycin. They were passaged ˜1:12-1:25 as fine clumps using Accutase (Gibco) onto plates precoated with a Geltrex substratum (Gibco) in mTeSR1 medium supplemented with thiazovivin ([…]; a ROCK inhibitor). After overnight plating, hESCs were washed (DMEM/F12) and differentiated towards posterior PS using BMP4 (15-40 ng/mL, R&D Systems), CHIR99021 ([…]), FGF2 (20 ng/mL, Invitrogen) and PIK90 (100 nM, Calbiochem) for 24 hours, with the optional inclusion of Activin (30 ng/mL, R&D Systems) to induce mid PS. Day 1 mid or posterior PS was subsequently washed (DMEM/F12) and further differentiated using BMP4 (40 ng/mL), GDC-0941 (0.25-2.5 μM, Cellagen Technology), Forskolin (10 μM, Tocris), SB-505124 ([…]), VEGF (100 ng/mL, R&D Systems), XAV939 (1 μM, Tocris) and ascorbic acid-2-phosphate (200 μg/mL, Sigma) for 24 hours. Day 2 cultures were further directed into the definitive hematopoietic lineage/hemogenic precursors by Activin A (15 ng/mL), GDC-0941 (0.25-2.5 μM), VEGF (100 ng/mL), XAV939 (1 μM) and ascorbic acid-2-phosphate (200 μg/mL) for 24 hours. Day 3 definitive hematopoietic progenitors were subsequently differentiated into early Runx1^lowGfi1^low hemogenic intermediates through day 4-5 treatment with BMP4 (50 ng/mL), TTNPB (500 nM), VEGF (100 ng/mL) and XAV939 (1 μM) for 48 hours, supplemented with SB-505124 (2 μM) on day 5. Day 5 populations were then dissociated into single cells, counted and reaggregated in individual wells of a low-adhesion V-bottom or U-bottom 96-well plate (e.g., Thermo Fisher, catalog no. 249952) with ˜15,000-20,000 cells seeded per well. Aggregates were cultured for 48 additional hours until day 7 in BMP4 (50 ng/mL), TTNPB (500 nM), VEGF (100 ng/mL), XAV939 (1 μM), SB-505124 (2 μM), SCF (25-50 ng/mL, R&D Systems), IL6 (10 ng/mL, R&D Systems) and IL6RA (250-1000 ng/mL, R&D Systems). All differentiation was conducted in serum-free CDM2 fully-defined basal media.

lateral mesoderm = assay: Forelimb versus hindlimb progenitor specification from lateral mesoderm; settings: RA signaling activated for 24 hours during lateral mesoderm induction (D1-2)
Protocol: Undifferentiated hPSCs (wild-type H7 as well as TBX5-Venus V19-2 H9 hESCs) were maintained in mTeSR1 media on Geltrex-coated plates. As described, they were differentiated into mid primitive streak for 24 hours (D0-1; 30 ng/mL Activin+40 ng/mL BMP4+6 μM CHIR99021+20 ng/mL FGF2+100 nM PIK90) and subsequently differentiated into lateral mesoderm (D1-2; 1 μM A-83-01+30 ng/mL BMP4+1 μM C59), with the inclusion of 50 nM of TTNPB or 2 μM ATRA on D1-2 for trunk lateral mesoderm that was subsequently competent for forelimb differentiation.
Day 2 trunk lateral mesoderm was differentiated into day 3 forelimb progenitors (D2-3; 1 μM A-83-01+1 μM DMH1+3 μM CHIR99021). By contrast, day 2 non-trunk lateral mesoderm was differentiated into day 3 hindlimb progenitors (D2-3; 25 ng/mL Activin+1 μM DMH1+3 μM CHIR99021).

[4] = tested on: day 5 hematopoietic intermediates; assay: Day 5-7 continued differentiation of hematopoietic intermediates, factor withholding; settings: individually withholding the factor from the 8 factors, 48 hours
Protocol: as §2

SOX17-mCherry hESCs = assay: Hematopoietic mesoderm and SOX17+CD34+ hemogenic precursor specification
Protocol: as §2

[5] = tested on: hESC-derived cardiac mesoderm; assay: Cardiac mesoderm differentiation into cardiovascular fates, qPCR; settings: added to WNT blockade with BMP activation
Protocol: Day 2 lateral mesoderm was differentiated into day 4 cardiac mesoderm by treating them with 1 μM A8301+30 ng/mL BMP4+1 μM C59+20 ng/mL FGF2 for 48 hrs, or alternatively, with 1 μM A8301+30 ng/mL BMP4+20 ng/mL FGF2 for 24 hrs followed by 25 ng/mL Activin+30 ng/mL BMP4+1 μM C59 for the next 24 hrs (schema in FIG. 5E; positive effect of mid-stage Activin shown in FIG. 12K). Subsequently, day 4 cardiac mesoderm was briefly washed (DMEM/F12) and treated with 30 ng/mL BMP4+1 μM XAV939+200 μg/mL 2-phospho-ascorbic acid (Sigma) for 48-96 hrs to yield day 6-8 cardiomyocyte-containing populations. Spontaneously contracting cardiomyocyte foci were evident from day 8 onwards.
as §1

## Cc1cc(-c2ccc(CC(=O)Nc3ccc(-c4cccnc4)cc3)cc2)ccn1 [C59, 4-(2-Methyl-4-pyridinyl)-N-[4-(3-pyridinyl)phenyl]benzeneacetamide]
[1]
  sclerotome fate induction: efficiently induced the sclerotome fate
[2]; day 2 lateral mesoderm, SB-505124+BMP4 with CHIR99021 or C59, 24 hours
  lateral mesoderm fate (qPCR): induced an anterior lateral mesoderm/cardiac mesoderm fate
[2]; last 12 hrs C59 or 3 μM CHIR in addition to BS
  pan-lateral mesoderm marker FOXF1 expression: not markedly changed

## C/C(=C\c1ccc(C(=O)O)cc1)c1ccc2c(c1)C(C)(C)CCC2(C)C [TTNPB]
[3]; day 5
  TBX20 expression: important to downregulate TBX20 expression
[3]; withdrawal of the factor from BMP, VEGF, XAV939, TTNPB
  RUNX1 expression by day 5: crippled RUNX1 expression
Lateral mesoderm
  forelimb transcription factor TBX5 expression on D3: paramount for lateral mesoderm to subsequently express key forelimb transcription factor TBX5

## O=c1[nH]c(-c2ccc(C(F)(F)F)cc2)nc2c1CSCC2 [XAV939, 3,5,7,8-Tetrahydro-2-[4-(trifluoromethyl)phenyl]-4H-thiopyrano[4,3-d]pyrimidin-4-one]
[3]; day 5
  GATA1 expression: pivotal to prevent BMP-induced GATA1 expression
[4]
  GFI1B expression: strongly diminished
SOX17-mCherry hESCs; treatment on day 2-3, 24 hours
  SOX17+ cells formed by day 3: doubled the formation of SOX17^+ cells

## O=C1O[C@H]([C@@H](O)CO)C(O)=C1OP(=O)(O)O [ascorbic acid-2-phosphate]
[5]
  cardiomyocyte differentiation: further enhanced
SOX17-mCherry hESCs; included on days 2 and 3
  efficiency of CD34+ progenitors produced by day 3: moderately enhanced the efficiency of CD34^+ progenitors
